Data: ChEMBL document CHEMBL1138190, “Synthesis and antibacterial activity of novel C12 vinyl ketolides” (J Med Chem, 2006)
Converted amounts (≈) assume the structure as drawn.

Experiments:
Assay type in all cases: functional
[1] = tested on: Haemophilus influenzae; test: Antibacterial activity against Haemophilus influenzae 2762
[2] = tested on: Staphylococcus aureus; test: Antibacterial activity against Staphylococcus aureus 29213
[3] = tested on: Staphylococcus aureus; test: Antibacterial activity against Staphylococcus aureus 33591
[4] = tested on: Staphylococcus epidermidis; test: Antibacterial activity against Staphylococcus epidermidis 14990
[5] = tested on: Staphylococcus epidermidis; test: Antibacterial activity against Staphylococcus epidermidis f50654
[6] = tested on: Enterococcus faecalis; test: Antibacterial activity against Enterococcus faecalis 29212
[7] = tested on: Enterococcus faecalis; test: Antibacterial activity against Enterococcus faecalis bc11148-2
[8] = tested on: Streptococcus pyogenes; test: Antibacterial activity against Streptococcus pyogenes 8668
[9] = tested on: Streptococcus pneumoniae; test: Antibacterial activity against Streptococcus pneumoniae 49619
[10] = tested on: Streptococcus pneumoniae; test: Antibacterial activity against Streptococcus pneumoniae 297-749
[11] = tested on: Streptococcus pneumoniae; test: Antibacterial activity against Streptococcus pneumoniae 280-962
[12] = tested on: Streptococcus pneumoniae; test: Antibacterial activity against Streptococcus pneumoniae Erm 6849
[13] = tested on: Streptococcus pneumoniae; test: Antibacterial activity against Streptococcus pneumoniae Mef 5654
[14] = tested on: Streptococcus pneumoniae; test: Antibacterial activity against Streptococcus pneumoniae Mef S 3427
[15] = tested on: Haemophilus influenzae; test: Antibacterial activity against Haemophilus influenzae 49247

MIC [1] [µg/mL] | MIC [2] [µg/mL] | MIC [3] [µg/mL] | MIC [4] [µg/mL] | MIC [5] [µg/mL] | MIC [6] [µg/mL] | MIC [7] [µg/mL] | MIC [8] [µg/mL] | MIC [9] [µg/mL] | MIC [10] [µg/mL] | MIC [11] [µg/mL] | MIC [12] [µg/mL] | MIC [13] [µg/mL] | MIC [14] [µg/mL] | MIC [15] [µg/mL] | Structure (SMILES)
3.13 (≈ 3.66 µM) | 0.1 (≈ 0.117 µM) | > 50 | 0.1 (≈ 0.117 µM) | 0.1 (≈ 0.117 µM) | 0.1 (≈ 0.117 µM) | 0.4 (≈ 0.467 µM) | ≤ 0.05 | ≤ 0.05 | ≤ 0.05 | ≤ 0.05 | 0.78 (≈ 0.911 µM) | 0.4 (≈ 0.467 µM) | 0.1 (≈ 0.117 µM) | 12.5 (≈ 14.6 µM) | C=C[C@]12OC(=O)N(CCN(C)Cc3cnc(-c4cccnc4)s3)[C@@H]1[C@@H](C)C(=O)[C@H](C)C[C@@](C)(OC)[C@H](O[C@@H]1O[C@H](C)C[C@H](N(C)C)[C@H]1O)[C@@H](C)C(=O)[C@@H](C)C(=O)O[C@@H]2CC
1.56 (≈ 1.89 µM) | 0.1 (≈ 0.121 µM) | > 50 | 0.2 (≈ 0.243 µM) | 0.2 (≈ 0.243 µM) | 0.1 (≈ 0.121 µM) | 0.4 (≈ 0.485 µM) | ≤ 0.05 | ≤ 0.05 | ≤ 0.05 | ≤ 0.05 | 0.2 (≈ 0.243 µM) | 0.4 (≈ 0.485 µM) | 0.1 (≈ 0.121 µM) | 3.13 (≈ 3.8 µM) | C=C[C@]12OC(=O)N(CCCCn3cnc(-c4cccnc4)c3)[C@@H]1[C@@H](C)C(=O)[C@H](C)C[C@@](C)(OC)[C@H](O[C@@H]1O[C@H](C)C[C@H](N(C)C)[C@H]1O)[C@@H](C)C(=O)[C@@H](C)C(=O)O[C@@H]2CC
1.56 (≈ 1.89 µM) | 0.2 (≈ 0.242 µM) | > 50 | 0.2 (≈ 0.242 µM) | 0.2 (≈ 0.242 µM) | 0.1 (≈ 0.121 µM) | 0.4 (≈ 0.485 µM) | ≤ 0.05 | ≤ 0.05 | ≤ 0.05 | ≤ 0.05 | 0.2 (≈ 0.242 µM) | 0.78 (≈ 0.945 µM) | 0.1 (≈ 0.121 µM) | 3.13 (≈ 3.79 µM) | C=C[C@]12OC(=O)N(CCCCn3cnc(-c4cncnc4)c3)[C@@H]1[C@@H](C)C(=O)[C@H](C)C[C@@](C)(OC)[C@H](O[C@@H]1O[C@H](C)C[C@H](N(C)C)[C@H]1O)[C@@H](C)C(=O)[C@@H](C)C(=O)O[C@@H]2CC
0.78 (≈ 0.959 µM) | 0.1 (≈ 0.123 µM) | > 50 | 0.1 (≈ 0.123 µM) | 0.1 (≈ 0.123 µM) | ≤ 0.05 | 0.4 (≈ 0.492 µM) | ≤ 0.05 | ≤ 0.05 | ≤ 0.05 | ≤ 0.05 | > 50 | 0.78 (≈ 0.959 µM) | 0.2 (≈ 0.246 µM) | 3.13 (≈ 3.85 µM) | C=C[C@]12OC(=O)N(CCCCn3cnc4c(C)ncnc43)[C@@H]1[C@@H](C)C(=O)[C@H](C)C[C@@](C)(OC)[C@H](O[C@@H]1O[C@H](C)C[C@H](N(C)C)[C@H]1O)[C@@H](C)C(=O)[C@@H](C)C(=O)O[C@@H]2CC
1.56 (≈ 1.85 µM) | 0.1 (≈ 0.119 µM) | > 50 | 0.1 (≈ 0.119 µM) | 0.1 (≈ 0.119 µM) | 0.1 (≈ 0.119 µM) | 0.4 (≈ 0.475 µM) | ≤ 0.05 | ≤ 0.05 | ≤ 0.05 | ≤ 0.05 | 0.78 (≈ 0.926 µM) | 0.4 (≈ 0.475 µM) | 0.1 (≈ 0.119 µM) | 3.13 (≈ 3.72 µM) | C=C[C@]12OC(=O)N(CCCCn3cnc(-c4ccc(F)nc4)c3)[C@@H]1[C@@H](C)C(=O)[C@H](C)C[C@@](C)(OC)[C@H](O[C@@H]1O[C@H](C)C[C@H](N(C)C)[C@H]1O)[C@@H](C)C(=O)[C@@H](C)C(=O)O[C@@H]2CC
0.78 (≈ 0.944 µM) | 0.2 (≈ 0.242 µM) | > 50 | 0.2 (≈ 0.242 µM) | 0.1 (≈ 0.121 µM) | 0.1 (≈ 0.121 µM) | 0.4 (≈ 0.484 µM) | ≤ 0.05 | ≤ 0.05 | ≤ 0.05 | ≤ 0.05 | 0.1 (≈ 0.121 µM) | 0.78 (≈ 0.944 µM) | 0.2 (≈ 0.242 µM) | 6.25 (≈ 7.57 µM) | C=C[C@]12OC(=O)N(CCCC(C)(C)n3cnc4ncccc43)[C@@H]1[C@@H](C)C(=O)[C@H](C)C[C@@](C)(OC)[C@H](O[C@@H]1O[C@H](C)C[C@H](N(C)C)[C@H]1O)[C@@H](C)C(=O)[C@@H](C)C(=O)O[C@@H]2CC
